Converted amounts (≈) assume the structure as drawn.
Legend:
S. pneumoniae ATCC 49619 = assay: MIC, NCCLS broth microdilution assay; format: cell-based, Streptococcus pneumoniae; settings: H = S. pneumoniae ATCC 49619
Description: (§1) Compounds according to this invention were screened for their in vitro activities against selected species of bacteria and fungi. The minimal inhibition concentration (MIC) of these compounds was determined using the National Committee for Clinical Laboratory Standards (NCCLS) broth microdilution assay in microtiter plates, as set forth in: (1) the guidelines of the National. Committee for Clinical Laboratory Standards (NCCLS) Document M7-A4 (NCCLS, 1997); (2) the guidelines of the National Committee for Clinical Laboratory Standards (NCCLS) Document M11-A4 (NCCLS, 1997); and (3) the guidelines and reference method of the National Committee for Clinical Laboratory Standards (NCCLS) Document M27-T (NCCLS, 1995). For antifungal assays, the method recommended in Murray, P R., 1995 Manual of Clinical Microbiology (ASM Press, Washington, D.C.), was employed.

E. faecalis ATCC 29212 = assay: MIC, NCCLS broth microdilution assay; format: cell-based, Enterococcus faecalis; settings: C = E. faecalis ATCC 29212
Description: as §1

[1] = tested on: Staphylococcus aureus (ATCC 13709, a methicillin sensitive strain (MSSA)); assay: MIC, NCCLS broth microdilution assay; format: cell-based; settings: E = S. aureus ATCC 13709
Description: (§2) In vitro biological activity data were collected for a variety of microorganisms, including Bacillus cereus (ATCC 11778), Staphylococcus aureus (ATCC 27660, a methicillin resistant strain (MRSA); ATCC 13709, a methicillin sensitive strain (MSSA)); Streptococcus pneumoniae (ATCC 51422, a penicillin resistant strain (PRSP)), Enterococcus faecium (ATCC 51559, a vancomycin resistant strain (VRE)), and Staphylococcus epidermidis (ATCC 12228). Additionally, antifungal activity data were collected for Candida albicans (ATCC 38247).
as §1

[2] = tested on: Staphylococcus aureus (ATCC 27660, a methicillin resistant strain (MRSA)); assay: MIC, NCCLS broth microdilution assay; format: cell-based; settings: F = S. aureus ATCC 27660
Description: as §2, §1

[3] = tested on: Bacillus cereus (ATCC 11778); assay: MIC, NCCLS broth microdilution assay; format: cell-based; settings: A = B. cereus ATCC 11778
Description: as §2, §1

[4] = tested on: Candida albicans (ATCC 38247); assay: Antifungal MIC assay; format: cell-based; settings: B = C. albicans ATCC 38247
Description: as §2, §1

[5] = Staphylococcus aureus, read-out: Minimum Inhibitory Concentration (MIC)

Compound	Minimum Inhibitory Concentration (MIC) (S. pneumoniae ATCC 49619)	Minimum Inhibitory Concentration (MIC) (E. faecalis ATCC 29212)	Minimum Inhibitory Concentration (MIC) [1]	Minimum Inhibitory Concentration (MIC) [2]	Minimum Inhibitory Concentration (MIC) [3]	Minimum Inhibitory Concentration (MIC) [4]	MIC (S. pneumoniae ATCC 49619; Streptococcus pneumoniae, ATCC49619, read-out: Minimum Inhibitory Concentration (MIC)) [mg/L]	MIC (E. faecalis ATCC 29212; Enterococcus faecalis, ATCC29212, read-out: Minimum Inhibitory Concentration (MIC)) [mg/L]	MIC [1, 5] [mg/L]	MIC [2, 5] [mg/L]	MIC ([3]; Bacillus cereus, ATCC11778, read-out: Minimum Inhibitory Concentration (MIC)) [mg/L]	MIC ([4]; Candida albicans, ATCC38247, read-out: Minimum Inhibitory Concentration (MIC)) [mg/L]
Cn1cc(NC(=O)c2cc(NC(=O)c3cc(NC(=O)c4cc(NC(=O)c5ccccc5F)cn4C)cn3C)cn2C)cc1C(=O)NCCN1CCSCC1 [Compound B-42]	+++ (+++ = MIC ≦ 4)	+++ (+++ = MIC ≦ 4)	+++ (+++ = MIC ≦ 4)	+++ (+++ = MIC ≦ 4)	+++ (+++ = MIC ≦ 4)	>32 mg/L	–	–	–	–	–	–
Cn1cc(NC(=O)c2cc(NC(=O)c3cc(NC(=O)c4cc(NC(=O)c5ccc(F)cc5)cn4C)cn3C)cn2C)cc1C(=O)NCCN1CCSCC1 [Compound B-35]	+++ (+++ = MIC ≦ 4)	+++ (+++ = MIC ≦ 4)	+++ (+++ = MIC ≦ 4)	+++ (+++ = MIC ≦ 4)	+++ (+++ = MIC ≦ 4)	>32 mg/L	–	–	–	–	–	–
Cn1cc(NC(=O)c2cc(NC(=O)c3cc(NC(=O)c4ccc(Cl)cc4F)c[nH]3)cn2CCCO)cc1C(=O)NCCN1CCOCC1 [Compound C-14]	+++ (+++ = MIC ≦ 4)	++ (++ = 4 < MIC < 12)	+++ (+++ = MIC ≦ 4)	+++ (+++ = MIC ≦ 4)	+++ (+++ = MIC ≦ 4)	>32 mg/L	–	–	–	–	–	–
COCn1cc(NC(=O)c2ccc(F)cc2F)cc1C(=O)Nc1cc(C(=O)Nc2cc(C(=O)NCCN3CCOCC3)n(C)c2)n(C)c1 [Compound C-7]	+++ (+++ = MIC ≦ 4)	+ (+ = 12 ≦ MIC ≦ 32)	++ (++ = 4 < MIC < 12)	+ (+ = 12 ≦ MIC ≦ 32)	+ (+ = 12 ≦ MIC ≦ 32)	>32 mg/L	–	–	–	–	–	–
CCN(CC)CCNC(=O)c1cc(NC(=O)c2cc(NC(=O)c3ccc(Cl)cc3F)c[nH]2)cn1C [Compound A-20]	+++ (+++ = MIC ≦ 4)	+++ (+++ = MIC ≦ 4)	++ (++ = 4 < MIC < 12)	++ (++ = 4 < MIC < 12)	+ (+ = 12 ≦ MIC ≦ 32)	>32 mg/L	–	–	–	–	–	–
Cn1cc(NC(=O)c2cc(NC(=O)c3ccc(Cl)cc3F)c[nH]2)cc1C(=O)Nc1c[nH]c(C(=O)NCCN2CCOCC2)c1 [Compound C-8]	+++ (+++ = MIC ≦ 4)	+++ (+++ = MIC ≦ 4)	+++ (+++ = MIC ≦ 4)	+++ (+++ = MIC ≦ 4)	+++ (+++ = MIC ≦ 4)	+++ (+++ = MIC ≦ 4)	–	–	–	–	–	–
Cn1cc(NC(=O)c2ccc(F)cc2F)cc1C(=O)Nc1cc(C(=O)Nc2cc(C(=O)OCCN3CCCCC3)n(C)c2)n(C)c1 [Compound B-9]	+++ (+++ = MIC ≦ 4)	+++ (+++ = MIC ≦ 4)	+++ (+++ = MIC ≦ 4)	+++ (+++ = MIC ≦ 4)	+++ (+++ = MIC ≦ 4)	>32 mg/L	–	–	–	–	–	–
Cc1cc(NC(=O)c2cc(NC(=O)c3cc(NC(=O)c4ccc(Cl)cc4F)cn3CCCN(C)C)c[nH]2)sn1 [Compound D-15]	+++ (+++ = MIC ≦ 4)	+++ (+++ = MIC ≦ 4)	+++ (+++ = MIC ≦ 4)	+++ (+++ = MIC ≦ 4)	+++ (+++ = MIC ≦ 4)	+++ (+++ = MIC ≦ 4)	–	–	–	–	–	–
Cc1cc(NC(=O)c2cc(NC(=O)c3cc(NC(=O)c4ccc(Cl)cc4F)cn3CCCN3CCC(O)CC3)c[nH]2)sn1 [Compound D-24]	+++ (+++ = MIC ≦ 4)	+++ (+++ = MIC ≦ 4)	+++ (+++ = MIC ≦ 4)	+++ (+++ = MIC ≦ 4)	+++ (+++ = MIC ≦ 4)	+++ (+++ = MIC ≦ 4)	–	–	–	–	–	–
Cn1cc(NC(=O)c2cc(NC(=O)c3cc(NC(=O)c4cc(NC(=O)c5ccc(Cl)cc5F)c[nH]4)cn3C)cn2C)cc1C(=O)NCCN1CCOCC1 [Compound A-27]	+++ (+++ = MIC ≦ 4)	++ (++ = 4 < MIC < 12)	+ (+ = 12 ≦ MIC ≦ 32)	+ (+ = 12 ≦ MIC ≦ 32)	+++ (+++ = MIC ≦ 4)	>32 mg/L	–	–	–	–	–	–
Cn1cc(NC(=O)c2cc(NC(=O)c3cc(NC(=O)c4ccc(Cl)cc4)cn3C)cn2CCN2CCOCC2)cc1C(=O)NCCN1CCOCC1 [Compound D-27]	+++ (+++ = MIC ≦ 4)	+++ (+++ = MIC ≦ 4)	+ (+ = 12 ≦ MIC ≦ 32)	+ (+ = 12 ≦ MIC ≦ 32)	++ (++ = 4 < MIC < 12)	>32 mg/L	–	–	–	–	–	–
Cc1cc(NC(=O)c2cc(NC(=O)c3cc(NC(=O)c4ccc(Cl)cc4NCCN4CCSCC4)cn3C)c[nH]2)sn1 [Compound C-24]	+++ (+++ = MIC ≦ 4)	++ (++ = 4 < MIC < 12)	++ (++ = 4 < MIC < 12)	+++ (+++ = MIC ≦ 4)	++ (++ = 4 < MIC < 12)	>32 mg/L	–	–	–	–	–	–
Cn1cc(NC(=O)c2cc(NC(=O)c3cnc(NC(=O)c4ccc(F)cc4F)s3)cn2C)cc1C(=O)NCCN1CCOCC1 [Compound E-9]	–	–	–	–	–	–	12 to 32 (≈ 18.7 to 49.9 µM)	12 to 32 (≈ 18.7 to 49.9 µM)	> 32	> 32	> 32	> 32
Cn1cc(NC(=O)c2cc(NC(=O)c3cc(NC(=O)c4ccc(F)cc4F)cn3C)cn2C)cc1C(=O)NCC[N+]1(C)CCOCC1 [Compound B-30]	+++ (+++ = MIC ≦ 4)	>32 mg/L	+++ (+++ = MIC ≦ 4)	+++ (+++ = MIC ≦ 4)	+++ (+++ = MIC ≦ 4)	+ (+ = 12 ≦ MIC ≦ 32)	–	–	–	–	–	–
Cn1cc(NC(=O)c2cc(NC(=O)c3ccc(Cl)cc3F)c[nH]2)cc1C(=O)NCCc1ccncc1 [Compound A-25]	+++ (+++ = MIC ≦ 4)	+++ (+++ = MIC ≦ 4)	+++ (+++ = MIC ≦ 4)	+++ (+++ = MIC ≦ 4)	++ (++ = 4 < MIC < 12)	>32 mg/L	–	–	–	–	–	–
Cn1cc(NC(=O)c2cc(NC(=O)c3cc(NC(=O)c4ccc(F)cc4F)cn3C)cn2C)cc1C(=O)NCCCN1CCCCC1 [Compound B-4]	++ (++ = 4 < MIC < 12)	++ (++ = 4 < MIC < 12)	++ (++ = 4 < MIC < 12)	++ (++ = 4 < MIC < 12)	++ (++ = 4 < MIC < 12)	>32 mg/L	–	–	–	–	–	–
C[C@@H]1CN(CCNC(=O)c2cc(NC(=O)c3cc(NC(=O)c4cc(NC(=O)c5ccc(F)cc5F)c[nH]4)cn3C)cn2C)C[C@H](C)O1 [Compound A-5]	++ (++ = 4 < MIC < 12)	+++ (+++ = MIC ≦ 4)	+++ (+++ = MIC ≦ 4)	+++ (+++ = MIC ≦ 4)	+ (+ = 12 ≦ MIC ≦ 32)	>32 mg/L	–	–	–	–	–	–
Cn1cc(NC(=O)c2cc(NC(=O)c3cc(NC(=O)c4ccc(Cl)c(Cl)c4)c[nH]3)cn2C)cc1C(=O)NCCN1CCOCC1 [Compound A-30]	+++ (+++ = MIC ≦ 4)	+++ (+++ = MIC ≦ 4)	+++ (+++ = MIC ≦ 4)	+++ (+++ = MIC ≦ 4)	+++ (+++ = MIC ≦ 4)	>32 mg/L	–	–	–	–	–	–

Source: US7348427B2, “Antipathogenic benzamide compounds” (Genesoft Pharmaceuticals, Inc., priority 2001, dated 2008)
